Here are results for 1 compound from PMC7416039 (Pharmacology Research & Perspectives, 2020).

Usually IC50 stands for the concentration that gives 50% inhibition.

One data set concerns the target T1, CYP2B6 (Homo sapiens, UniProt P20813).
T1 sequence (P20813 1-491): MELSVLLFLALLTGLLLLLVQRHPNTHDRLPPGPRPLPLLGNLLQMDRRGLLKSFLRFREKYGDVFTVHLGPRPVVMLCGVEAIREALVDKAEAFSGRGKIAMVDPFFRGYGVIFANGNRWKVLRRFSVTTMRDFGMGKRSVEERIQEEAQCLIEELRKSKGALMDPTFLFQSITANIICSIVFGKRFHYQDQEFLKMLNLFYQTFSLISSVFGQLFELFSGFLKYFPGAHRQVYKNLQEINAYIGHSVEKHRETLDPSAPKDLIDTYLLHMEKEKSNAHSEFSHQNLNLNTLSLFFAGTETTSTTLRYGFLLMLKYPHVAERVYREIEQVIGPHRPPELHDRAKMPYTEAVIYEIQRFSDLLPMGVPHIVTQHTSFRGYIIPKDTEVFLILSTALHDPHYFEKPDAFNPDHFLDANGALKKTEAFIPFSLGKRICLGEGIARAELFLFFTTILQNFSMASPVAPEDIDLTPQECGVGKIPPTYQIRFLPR
As to the kind of experiment: Time-dependent inhibition of CYP isoforms in HLM.

Data set [1] concerns the target T2, CYP2A6 (Homo sapiens, UniProt P11509).
T2 sequence (P11509 1-494): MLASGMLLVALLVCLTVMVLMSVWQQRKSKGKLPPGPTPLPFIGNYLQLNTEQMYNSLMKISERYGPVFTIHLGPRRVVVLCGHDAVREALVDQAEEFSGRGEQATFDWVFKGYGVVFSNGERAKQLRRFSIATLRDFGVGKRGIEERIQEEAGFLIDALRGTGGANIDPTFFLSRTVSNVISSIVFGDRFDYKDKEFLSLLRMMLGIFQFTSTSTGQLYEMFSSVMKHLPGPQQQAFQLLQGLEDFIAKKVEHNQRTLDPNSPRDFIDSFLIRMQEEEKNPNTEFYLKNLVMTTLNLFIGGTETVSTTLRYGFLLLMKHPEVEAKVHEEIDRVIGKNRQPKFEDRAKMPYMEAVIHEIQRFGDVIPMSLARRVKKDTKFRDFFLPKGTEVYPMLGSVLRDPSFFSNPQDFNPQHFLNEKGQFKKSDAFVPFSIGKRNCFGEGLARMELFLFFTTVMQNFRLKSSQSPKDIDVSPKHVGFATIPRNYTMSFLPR
Briefly: Direct inhibition of CYP isoforms in HLM.

Data set [2] concerns the target T3, human aldehyde dehydrogenase 2 (ALDH2) (Homo sapiens, UniProt P05091).
T3 sequence (P05091 18-517): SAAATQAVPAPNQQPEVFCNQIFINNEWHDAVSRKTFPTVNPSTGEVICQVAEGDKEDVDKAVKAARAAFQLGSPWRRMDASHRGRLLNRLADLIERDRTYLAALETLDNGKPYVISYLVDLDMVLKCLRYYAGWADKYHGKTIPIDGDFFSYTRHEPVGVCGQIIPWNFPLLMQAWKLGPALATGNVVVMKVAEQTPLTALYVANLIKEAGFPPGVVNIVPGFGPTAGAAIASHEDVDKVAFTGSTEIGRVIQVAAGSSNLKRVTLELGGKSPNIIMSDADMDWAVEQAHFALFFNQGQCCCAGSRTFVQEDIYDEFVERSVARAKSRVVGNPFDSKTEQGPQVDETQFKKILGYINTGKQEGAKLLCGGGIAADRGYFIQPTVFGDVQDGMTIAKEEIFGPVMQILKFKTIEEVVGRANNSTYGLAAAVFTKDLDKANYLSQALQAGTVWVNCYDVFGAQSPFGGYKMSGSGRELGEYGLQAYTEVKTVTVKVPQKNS
As to the kind of experiment: Time-dependent inhibition of ALDH2. The conditions noted are these: for Time-dependent inhibition of ALDH2 (residual ALDH2 catalytic activity): 10 μmol/L secnidazole. In kind it is biochemical.

The target of a further data set is CYP2C19 (Homo sapiens, UniProt P33261). As to the kind of experiment: Time-dependent inhibition of CYP isoforms in HLM.
Sequence of CYP2C19 (P33261 whole entry, canonical isoform): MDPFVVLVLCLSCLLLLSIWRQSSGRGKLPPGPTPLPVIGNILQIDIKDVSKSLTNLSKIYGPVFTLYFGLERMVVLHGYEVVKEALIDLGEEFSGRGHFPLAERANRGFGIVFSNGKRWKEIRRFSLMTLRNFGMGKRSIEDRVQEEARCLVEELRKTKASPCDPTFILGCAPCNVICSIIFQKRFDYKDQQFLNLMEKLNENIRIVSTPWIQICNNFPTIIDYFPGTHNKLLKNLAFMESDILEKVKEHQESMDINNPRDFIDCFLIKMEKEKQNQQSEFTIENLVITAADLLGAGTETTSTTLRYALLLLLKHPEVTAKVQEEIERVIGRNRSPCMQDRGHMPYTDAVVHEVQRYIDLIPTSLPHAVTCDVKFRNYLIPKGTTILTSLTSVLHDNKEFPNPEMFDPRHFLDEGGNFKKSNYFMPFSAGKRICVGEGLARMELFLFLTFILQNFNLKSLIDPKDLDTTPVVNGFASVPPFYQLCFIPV
In data set [3] the target is T4, CYP1A2 (Homo sapiens, UniProt P05177).
T4 sequence (P05177 1-516): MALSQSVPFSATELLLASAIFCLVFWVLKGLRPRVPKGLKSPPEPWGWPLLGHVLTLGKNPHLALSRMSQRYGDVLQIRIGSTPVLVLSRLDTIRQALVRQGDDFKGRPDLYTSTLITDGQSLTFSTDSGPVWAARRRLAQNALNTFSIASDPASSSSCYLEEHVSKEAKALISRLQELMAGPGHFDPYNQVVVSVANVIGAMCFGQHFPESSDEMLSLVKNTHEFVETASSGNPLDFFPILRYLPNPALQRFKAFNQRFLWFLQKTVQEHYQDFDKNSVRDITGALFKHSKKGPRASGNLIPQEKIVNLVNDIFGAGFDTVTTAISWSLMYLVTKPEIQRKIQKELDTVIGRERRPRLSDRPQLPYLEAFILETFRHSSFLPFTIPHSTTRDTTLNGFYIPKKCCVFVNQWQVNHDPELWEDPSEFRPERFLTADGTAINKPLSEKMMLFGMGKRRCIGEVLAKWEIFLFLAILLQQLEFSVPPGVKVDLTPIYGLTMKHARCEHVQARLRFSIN
As to the kind of experiment: Time-dependent inhibition of CYP isoforms in HLM.

For data set [4], the target named is T2, CYP2A6. As to the kind of experiment: Time-dependent inhibition of CYP isoforms in HLM.
Data set [5] deals with T4, CYP1A2. Briefly: Direct inhibition of CYP isoforms in HLM.

Consider `Cc1ncc([N+](=O)[O-])n1CC(C)O` (stereo not shown) [secnidazole], for which the IC50 is above 500 µM against CYP2B6; above 5000 µM against CYP2A6 [1]; above 1000 µM on CYP2C19; above 500 µM at CYP1A2 [3]; above 500 µM against CYP2A6 [4]; above 5000 µM on CYP1A2 [5]. The “direct inhibition (in words)” value on CYP2A6 [1] (HLM, CYP2A6) is on record as “some clear concentration‐dependent inhibition at higher concentration”. Also, the “Time-dependent inhibition of ALDH2 (residual ALDH2 catalytic activity)” value was determined as 104 in data set [2] (preincubation time 0.5); 103 in data set [2] (preincubation time 1); 101 in data set [2] (preincubation time 2); 104 in data set [2] (preincubation time 3); 101 in data set [2] (preincubation time 4); 110 in data set [2] (preincubation time 8). The entries for the “Time-dependent inhibition of ALDH2 (residual ALDH2 catalytic activity)” value in data set [2] (preincubation time 16) and in data set [2] (preincubation time 24) were 113 and 131, respectively. The “Time-dependent inhibition of ALDH2 (in words)” value in data set [2] (preincubated with ALDH2 enzyme and NAD+ from 1 to 24 minutes, secnidazole at 10 or 100 μmol/L) is on record as “little or no time‐dependent inhibition”.
